Data: ChEMBL document CHEMBL1133821, “Synthesis and antiinflammatory, analgesic activity of 3,3'-(1,2-ethanediyl)-bis[2-aryl-4-thiazolidinone] chiral compounds. Part 10” (Bioorg Med Chem Lett, 2001)

Columns and labels:
Rattus norvegicus [1] = assay: Animals with Hyperemia in Carrageenan-induced paw edema test at a dose of 100 mg/kg perorally in rats; format: functional; settings: route oral
Rattus norvegicus [2] = assay: Percent Edema variation in Carrageenan-induced paw edema test at a dose of 50 mg/kg perorally in rats after 120 min; format: functional; settings: route oral
Rattus norvegicus [3] = assay: Percent Edema variation in Carrageenan-induced paw edema test at a dose of 50 mg/kg perorally in rats after 180 min (p<0.01); format: functional; settings: route oral
Rattus norvegicus [4] = assay: Reaction time in Hot plate test at a dose of 50 mg/kg perorally in rats after 120 min (p<0.01); format: functional; settings: route oral
Rattus norvegicus [5] = assay: Reaction time in Hot plate test at a dose of 50 mg/kg perorally in rats after 180 min (p<0.01); format: functional; settings: route oral
Rattus norvegicus [6] = assay: Reaction time in Hot plate test at a dose of 50 mg/kg perorally in rats after 60 min (p<0.01); format: functional; settings: route oral
Rattus norvegicus [7] = assay: Analgesic activity was determined using acetic acid writing test at a dose of 50 mg/kg perorally in rats. (p<0.01); format: functional; settings: route oral
Rattus norvegicus [8] = assay: Number of writhings in Acetic acid Writhing test at a dose of 50 mg/kg perorally in rats; format: functional; settings: route oral
[9] = Peroral dose causing 50% death of the mice population; format: ADME, organism-based; settings: mouse, in vivo, po
Rattus norvegicus [10] = assay: (§1) Animals with Ulcers in Carrageenan-induced paw edema test at a dose of 50 mg/kg perorally in rats; format: functional; settings: route oral
Rattus norvegicus [11] = assay: (§2) Percent Edema variation in Carrageenan-induced paw edema test at a dose of 50 mg/kg perorally in rats after 60 min; format: functional; settings: route oral
Rattus norvegicus [12] = assay: Animals with Ulcers in Carrageenan-induced paw edema test at a dose of 100 mg/kg perorally in rats; format: functional; settings: route oral
Rattus norvegicus [13] = assay: Percent Edema variation in Carrageenan-induced paw edema test at a dose of 100 mg/kg perorally in rats after 120 min (p<0.001); format: functional; settings: route oral
[14] = Percent Edema variation in Carrageenan-induced paw edema test at a dose of 50 mg/kg perorally in rats after 120 min (p<0.01); format: functional; settings: route oral
Rattus norvegicus [15] = assay: Percent Edema variation in Carrageenan-induced paw edema test at a dose of 100 mg/kg perorally in rats after 180 min (p<0.001); format: functional; settings: route oral
Rattus norvegicus [16] = assay: Percent Edema variation in Carrageenan-induced paw edema test at a dose of 100 mg/kg perorally in rats after 60 min; format: functional; settings: route oral
Rattus norvegicus [17] = assay: Reaction time in Hot plate test at a dose of 100 mg/kg perorally in rats after 180 min; format: functional; settings: route oral
Rattus norvegicus [18] = assay: Analgesic activity was determined using acetic acid writing test at a dose of 100 mg/kg perorally in rats.(p<0.05); format: functional; settings: route oral
Rattus norvegicus [19] = assay: Reaction time in Hot plate test at a dose of 100 mg/kg perorally in rats after 120 min; format: functional; settings: route oral
Rattus norvegicus [20] = assay: Number of writhings in Acetic acid Writhing test at a dose of 100 mg/kg perorally in rats; format: functional; settings: route oral
[21] = Minimum concentration which causes 50% of the Artemia salina larvae to lose mobility; format: ADME, organism-based; settings: in vivo
[22] = (§3) Animals with Hyperemia in Carrageenan-induced paw edema test at a dose of 50 mg/kg perorally in rats; format: functional; settings: route oral
[23] = as §1; format: functional; settings: route oral
[24] = Percent Edema variation in Carrageenan-induced paw edema test at a dose of 50 mg/kg perorally in rats after 180 min (p<0.001); format: functional; settings: route oral
[25] = as §2; format: functional; settings: route oral
Rattus norvegicus [26] = assay: Reaction time in Hot plate test at a dose of 100 mg/kg perorally in rats after 60 min (p<0.05); format: functional; settings: route oral
Rattus norvegicus [27] = assay: Percent Edema variation in Carrageenan-induced paw edema test at a dose of 100 mg/kg perorally in rats after 120 min; format: functional; settings: route oral
Rattus norvegicus [28] = assay: Percent Edema variation in Carrageenan-induced paw edema test at a dose of 100 mg/kg perorally in rats after 180 min; format: functional; settings: route oral
Rattus norvegicus [29] = assay: Percent Edema variation in Carrageenan-induced paw edema test at a dose of 100 mg/kg perorally in rats after 60 min (p<0.001); format: functional; settings: route oral
Rattus norvegicus [30] = assay: Percent Edema variation in Carrageenan-induced paw edema test at a dose of 50 mg/kg perorally in rats after 180 min; format: functional; settings: route oral
Rattus norvegicus [31] = assay: Percent Edema variation in Carrageenan-induced paw edema test at a dose of 50 mg/kg perorally in rats after 60 min (p<0.01); format: functional; settings: route oral
Rattus norvegicus [32] = assay: Reaction time in Hot plate test at a dose of 100 mg/kg perorally in rats after 60 min; format: functional; settings: route oral
Rattus norvegicus [33] = assay: Analgesic activity was determined using acetic acid writing test at a dose of 100 mg/kg perorally in rats.; format: functional; settings: route oral
Rattus norvegicus [34] = assay: as §3; format: functional; settings: route oral
Rattus norvegicus [35] = assay: Percent Edema variation in Carrageenan-induced paw edema test at a dose of 100 mg/kg perorally in rats after 180 min (p<0.01); format: functional; settings: route oral
Rattus norvegicus [36] = assay: Analgesic activity was determined using acetic acid writing test at a dose of 100 mg/kg perorally in rats. (p<0.01); format: functional; settings: route oral
Rattus norvegicus [37] = assay: Number of writhings in Acetic acid Writhing test at a dose of 100 mg/kg perorally in rats(p<0.05); format: functional; settings: route oral

CCCCC1C(=O)N(c2ccccc2)N(c2ccccc2)C1=O [PHENYLBUTAZONE]
Animals (Rattus norvegicus [1]): 100% | Edema variation (Rattus norvegicus [2]): -5.25% | Edema variation (Rattus norvegicus [3]): -39.02% | Reaction time (Rattus norvegicus [4]): 30 s | Reaction time (Rattus norvegicus [5]): 31.7 s | Reaction time (Rattus norvegicus [6]): 28.3 s | inhibition in vivo at 50 mg/kg (Rattus norvegicus [7]): 82% | No. of writhings (Rattus norvegicus [8]): 3.6 | LD50 [9]: 300 mg/kg | Animals (Rattus norvegicus [10]): 80% | Edema variation (Rattus norvegicus [11]): -20.27%

COc1ccc([C@H]2SCC(=O)N2CCN2C(=O)CS[C@H]2c2ccc(OC)cc2)cc1
Animals (Rattus norvegicus [1]): 40% | Animals (Rattus norvegicus [12]): 0% | Edema variation (Rattus norvegicus [13]): -75.9% | Edema variation [14]: -49% | Edema variation (Rattus norvegicus [15]): -96.42% | Edema variation (Rattus norvegicus [16]): 20.23% | Reaction time (Rattus norvegicus [17]): 15 s | inhibition in vivo at 100 mg/kg (Rattus norvegicus [18]): 44% | Reaction time (Rattus norvegicus [19]): 15.6 s | No. of writhings (Rattus norvegicus [20]): 11.3 | LC50 [21]: > 1000 µg/mL | LD50 [9]: > 1000 mg/kg | Animals [22]: 20% | Animals [23]: 0% | Edema variation [24]: -66.97% | Edema variation [25]: 14.08% | Reaction time (Rattus norvegicus [26]): 17 s

COc1cccc([C@H]2SCC(=O)N2CCN2C(=O)CS[C@H]2c2cccc(OC)c2)c1
Animals (Rattus norvegicus [1]): 20% | Animals (Rattus norvegicus [12]): 0% | Edema variation (Rattus norvegicus [27]): -12.7% | Edema variation (Rattus norvegicus [28]): 20.1% | Edema variation (Rattus norvegicus [29]): -65.3% | Edema variation (Rattus norvegicus [2]): -8.15% | Edema variation (Rattus norvegicus [30]): 29.59% | Edema variation (Rattus norvegicus [31]): -38.29% | Reaction time (Rattus norvegicus [17]): 10.7 s | Reaction time (Rattus norvegicus [32]): 12.1 s | inhibition in vivo at 100 mg/kg (Rattus norvegicus [33]): 60% | Reaction time (Rattus norvegicus [19]): 12 s | No. of writhings (Rattus norvegicus [20]): 8.1 | LC50 [21]: > 1000 µg/mL | LD50 [9]: > 1000 mg/kg | Animals (Rattus norvegicus [34]): 20% | Animals (Rattus norvegicus [10]): 0%

Cc1cccc([C@H]2SCC(=O)N2CCN2C(=O)CS[C@H]2c2cccc(C)c2)c1
Animals (Rattus norvegicus [1]): 80% | Animals (Rattus norvegicus [12]): 20% | Edema variation (Rattus norvegicus [27]): -13.05% | Edema variation (Rattus norvegicus [35]): -55.81% | Edema variation (Rattus norvegicus [16]): 25.6% | Reaction time (Rattus norvegicus [17]): 11 s | inhibition in vivo at 100 mg/kg (Rattus norvegicus [36]): 64% | Reaction time (Rattus norvegicus [19]): 11.1 s | No. of writhings (Rattus norvegicus [37]): 7.3 | LC50 [21]: > 1000 µg/mL | LD50 [9]: > 1000 mg/kg | Reaction time (Rattus norvegicus [26]): 18.4 s
